Results as given in patent US12540141B2, “Spiropyrrolidine derived antiviral agents” (priority 2020, dated 2026).

molecular target: SARS-CoV-2 3CL-protease (Severe acute respiratory syndrome coronavirus 2, UniProt P0DTD1); experiment: SARS-CoV-2 3C-Like (3CL) Protease Fluorescence Assay (FRET); type: biochemical; settings: SARS-CoV-2 3CL-protease 10 nM, 30 min preincubation at RT, substrate 40 μM

| SMILES | IC50 [nM] |
| --- | --- |
| CC(C)C[C@@H](C(=O)N1C[C@]2(C[C@H]1C#N)C(=O)Nc1ccccc12)N(C)C(=O)C1(c2ccc3c(c2)OC(F)(F)O3)CC1 [Example 329] | < 100 |
| CC(C)C[C@@H](C(=O)N1C[C@]2(C[C@H]1C#N)C(=O)Nc1ccccc12)N(C)C(=O)c1ccc2ncccc2c1F [Example 330] | < 100 |
| CC(C)C[C@@H](C(=O)N1C[C@]2(C[C@H]1C#N)C(=O)Nc1ccccc12)N(C)C(=O)c1cc2ccc(C(F)(F)F)cc2[nH]1 [Example 331] | < 100 |
| CC(C)C[C@@H](C(=O)N1C[C@]2(C[C@H]1C#N)C(=O)Nc1ccccc12)N(C)C(=O)c1cc2cc(F)c(F)c(F)c2[nH]1 [Example 333] | < 100 |
| CC(C)C[C@@H](C(=O)N1C[C@]2(C[C@H]1C#N)C(=O)Nc1ccccc12)N(C)C(=O)c1cc2ccc(Cl)c(Cl)c2[nH]1 [Example 334] | < 100 |
| CC(C)C[C@@H](C(=O)N1C[C@]2(C[C@H]1C#N)C(=O)Nc1ccccc12)N(C)C(=O)N1CC[C@H](O)C1 [Example 335] | 100 to 1000 |
| CC(C)C[C@@H](C(=O)N1C[C@]2(C[C@H]1C#N)C(=O)Nc1ccccc12)N(C)C(=O)c1cc2cccc(C(F)(F)F)c2[nH]1 [Example 336] | < 100 |
| CC(C)C[C@@H](C(=O)N1C[C@]2(C[C@H]1C#N)C(=O)Nc1ccccc12)N(C)C(=O)c1cn(-c2ccccc2)nn1 [Example 338] | < 100 |
| CC(C)C[C@@H](C(=O)N1C[C@]2(C[C@H]1C#N)C(=O)Nc1ccccc12)N(C)C(=O)c1ccc2nn(C3CC3)cc2c1 [Example 339] | 100 to 1000 |
| CC(C)C[C@@H](C(=O)N1C[C@]2(C[C@H]1C#N)C(=O)Nc1ccccc12)N(C)C(=O)c1cc(F)c2nc(C3CC3)[nH]c2c1 [Example 340] | 100 to 1000 |
| CC(C)C[C@@H](C(=O)N1C[C@]2(C[C@H]1C#N)C(=O)Nc1ccccc12)N(C)C(=O)c1cc(F)c2nc(C(F)F)cn2c1 [Example 341] | 100 to 1000 |
| Cc1cc(F)c(C(=O)N(C)[C@@H](CC(C)C)C(=O)N2C[C@]3(C[C@H]2C#N)C(=O)Nc2ccccc23)cc1-c1cnn(C2CC2)c1 [Example 342] | < 100 |
| CC(C)C[C@@H](C(=O)N1C[C@]2(C[C@H]1C#N)C(=O)Nc1ccccc12)N(C)C(=O)c1ccc(OC2CC2)c(-c2cccnc2)c1 [Example 343] | < 100 |
| CC(C)C[C@@H](C(=O)N1C[C@]2(C[C@H]1C#N)C(=O)Nc1ccccc12)N(C)C(=O)[C@H]1CCN(C(=O)OC(C)(C)C)C1 [Example 344] | 100 to 1000 |
| CC(C)C[C@@H](C(=O)N1C[C@]2(C[C@H]1C#N)C(=O)Nc1ccccc12)N(C)C(=O)[C@@H]1CCN(C(=O)OC(C)(C)C)C1 [Example 345] | < 100 |
| CC(C)C[C@@H](C(=O)N1C[C@]2(C[C@H]1C#N)C(=O)Nc1ccccc12)N(C)C(=O)[C@@H](c1cnn(C)c1)C(C)C [Example 348] | < 100 |
| CC(C)C[C@@H](C(=O)N1C[C@]2(C[C@H]1C#N)C(=O)Nc1ccccc12)N(C)C(=O)[C@H](c1cnn(C)c1)C(C)C [Example 349] | < 100 |
| CC(C)C[C@@H](C(=O)N1C[C@]2(C[C@H]1C#N)C(=O)Nc1ccccc12)N(C)C(=O)[C@@H](c1cn(C)nn1)C(C)C [Example 350] | < 100 |
| CC(C)C[C@@H](C(=O)N1C[C@]2(C[C@H]1C#N)C(=O)Nc1ccccc12)N(C)C(=O)[C@H](c1cn(C)nn1)C(C)C [Example 351] | < 100 |

| SMILES | IC50 [nM] |
| --- | --- |
| CC(C)C[C@@H](C(=O)N1C[C@]2(C[C@H]1C#N)C(=O)Nc1ccccc12)N(C)C(=O)c1cnn(C(C)(C)C)c1 [Example 352] | < 100 |
| CC(C)C[C@@H](C(=O)N1C[C@]2(C[C@H]1C#N)C(=O)Nc1ccccc12)N(C)C(=O)c1cnn(-c2ccccc2C(F)(F)F)c1 [Example 353] | < 100 |
| CC(C)C[C@@H](C(=O)N1C[C@]2(C[C@H]1C#N)C(=O)Nc1ccccc12)N(C)C(=O)c1nnc(C2CC2)o1 [Example 354] | < 100 |
| CC(C)C[C@@H](C(=O)N1C[C@]2(C[C@H]1C#N)C(=O)Nc1ccccc12)N(C)C(=O)c1nnc(-c2ccc(F)cc2)o1 [Example 355] | < 100 |
| CC(C)C[C@@H](C(=O)N1C[C@]2(C[C@H]1C#N)C(=O)Nc1ccccc12)N(C)C(=O)c1nnn(C(C)(C)C)n1 [Example 356] | < 100 |
| CN(C(=O)c1cn(-c2ccc(F)cc2)nn1)[C@@H](Cc1ccccc1)C(=O)N1C[C@]2(C[C@H]1C#N)C(=O)Nc1ccccc12 [Example 357] | < 100 |
| CN(C(=O)c1cn(C2CCC2)nn1)[C@@H](Cc1ccccc1)C(=O)N1C[C@]2(C[C@H]1C#N)C(=O)Nc1ccccc12 [Example 358] | < 100 |
| CN(C(=O)c1cn(C2CC2)nn1)[C@@H](Cc1ccccc1)C(=O)N1C[C@]2(C[C@H]1C#N)C(=O)Nc1ccccc12 [Example 359] | < 100 |
| CN(C(=O)c1ccn(CC(F)(F)F)n1)[C@@H](Cc1ccccc1)C(=O)N1C[C@]2(C[C@H]1C#N)C(=O)Nc1ccccc12 [Example 360] | < 100 |
| CN(C(=O)c1ccn(C2CC2)n1)[C@@H](Cc1ccccc1)C(=O)N1C[C@]2(C[C@H]1C#N)C(=O)Nc1ccccc12 [Example 361] | < 100 |
| CN(C(=O)c1cn(CC(F)(F)F)nn1)[C@@H](Cc1ccccc1)C(=O)N1C[C@]2(C[C@H]1C#N)C(=O)Nc1ccccc12 [Example 362] | < 100 |
| CN(C(=O)c1cn(C(C)(C)C)nn1)[C@@H](Cc1ccccc1)C(=O)N1C[C@]2(C[C@H]1C#N)C(=O)Nc1ccccc12 [Example 363] | < 100 |
| CC(C)C[C@@H](C(=O)N1C[C@]2(C[C@H]1C#N)C(=O)Nc1ccccc12)N(C)C(=O)CC1CC1 [Example 364] | < 100 |
| CC(C)C[C@@H](C(=O)N1C[C@]2(C[C@H]1C#N)C(=O)Nc1ccccc12)N(C)C(=O)c1cn(C2CCC2)nn1 [Example 365] | < 100 |
| CC(C)C[C@@H](C(=O)N1C[C@]2(C[C@H]1C#N)C(=O)Nc1ccccc12)N(C)C(=O)CCNC(=O)OC(C)(C)C [Example 366] | < 100 |
| CC(C)C[C@@H](C(=O)N1C[C@]2(C[C@H]1C#N)C(=O)Nc1ccccc12)N(C)C(=O)CCN [Example 367] | < 100 |
| CC(C)C[C@@H](C(=O)N1C[C@]2(C[C@H]1C#N)C(=O)Nc1ccccc12)N(C)C(=O)CCNC(=O)c1ccc(F)cc1F [Example 368] | < 100 |
| COc1cccc2[nH]c(C(=O)N(C)[C@@H](COC(C)(C)C)C(=O)N3C[C@]4(C[C@H]3C#N)C(=O)Nc3ccccc34)cc12 [Example 370] | < 100 |
| CN(C(=O)c1cc2c(F)cc(F)cc2[nH]1)[C@@H](COC(C)(C)C)C(=O)N1C[C@]2(C[C@H]1C#N)C(=O)Nc1ccccc12 [Example 371] | < 100 |

| SMILES | IC50 [nM] |
| --- | --- |
| C[C@@H](C(=O)N(C)[C@@H](CC(C)(C)C)C(=O)N1C[C@]2(C[C@H]1C#N)C(=O)Nc1ccccc12)c1cnn(C)c1 [Example 372] | < 100 |
| C[C@H](C(=O)N(C)[C@@H](CC(C)(C)C)C(=O)N1C[C@]2(C[C@H]1C#N)C(=O)Nc1ccccc12)c1cnn(C)c1 [Example 373] | < 100 |
| CN(C(=O)C(F)(F)F)[C@@H](CC(C)(C)C)C(=O)N1C[C@]2(C[C@H]1C#N)C(=O)Nc1ccccc12 [Example 374] | 100 to 1000 |
| CN(C(=O)c1cc2c(OC3CC3)cccc2[nH]1)[C@@H](CC(C)(C)C)C(=O)N1C[C@]2(C[C@H]1C#N)C(=O)Nc1ccccc12 [Example 375] | < 100 |
| [2H]C([2H])([2H])N(C(=O)c1nc(-c2ccccc2)c[nH]1)[C@@H](CC(C)(C)C)C(=O)N1C[C@]2(C[C@H]1C#N)C(=O)Nc1ccccc12 [Example 376] | < 100 |
| [2H]C([2H])([2H])N(C(=O)c1cn(-c2ccc(Cl)cc2)nn1)[C@@H](CC(C)(C)C)C(=O)N1C[C@]2(C[C@H]1C#N)C(=O)Nc1ccccc12 [Example 377] | < 100 |
| [2H]C([2H])([2H])N(C(=O)c1cn(C2CC2)nn1)[C@@H](CC(C)(C)C)C(=O)N1C[C@]2(C[C@H]1C#N)C(=O)Nc1ccccc12 [Example 378] | < 100 |
| [2H]C([2H])([2H])N(C(=O)c1cn(C2CCC2)nn1)[C@@H](CC(C)(C)C)C(=O)N1C[C@]2(C[C@H]1C#N)C(=O)Nc1ccccc12 [Example 379] | < 100 |
| [2H]C([2H])([2H])N(C(=O)c1cn(CC(F)(F)F)nn1)[C@@H](CC(C)(C)C)C(=O)N1C[C@]2(C[C@H]1C#N)C(=O)Nc1ccccc12 [Example 380] | < 100 |
| [2H]C([2H])([2H])N(C(=O)c1ccc2ncc(C(F)(F)F)cc2c1)[C@@H](CC(C)(C)C)C(=O)N1C[C@]2(C[C@H]1C#N)C(=O)Nc1ccccc12 [Example 381] | < 100 |
| [2H]C([2H])([2H])N(C(=O)c1cc(OC(F)(F)F)c2ncccc2c1)[C@@H](CC(C)(C)C)C(=O)N1C[C@]2(C[C@H]1C#N)C(=O)Nc1ccccc12 [Example 382] | < 100 |
| [2H]C([2H])([2H])N(C(=O)c1cc(OC(F)F)c2ncccc2c1)[C@@H](CC(C)(C)C)C(=O)N1C[C@]2(C[C@H]1C#N)C(=O)Nc1ccccc12 [Example 383] | < 100 |
| CCCC[C@@H](C(=O)N1C[C@]2(C[C@H]1C#N)C(=O)Nc1ccccc12)N(C)C(=O)c1cc2c(F)cc(F)cc2[nH]1 [Example 384] | < 100 |
| CC[C@@H](C(=O)N1C[C@]2(C[C@H]1C#N)C(=O)Nc1ccccc12)N(C)C(=O)c1cc2c(F)cc(F)cc2[nH]1 [Example 385] | 100 to 1000 |
| CCC[C@@H](C(=O)N1C[C@]2(C[C@H]1C#N)C(=O)Nc1ccccc12)N(C)C(=O)c1cc2c(F)cc(F)cc2[nH]1 [Example 386] | < 100 |
| CN(C(=O)OCc1ccccc1)[C@@H](Cc1ccc(OCc2ccccc2)cc1)C(=O)N1C[C@]2(C[C@H]1C#N)C(=O)Nc1ccccc12 [Example 387] | > 1000 |
| CN(C(=O)c1cc2c(F)cc(F)cc2[nH]1)[C@@H](Cc1cccc(F)c1)C(=O)N1C[C@]2(C[C@H]1C#N)C(=O)Nc1ccccc12 [Example 389] | < 100 |
| [2H]C([2H])([2H])N(C(=O)c1cn(C2CCC2)nn1)[C@@H](Cc1ccc(F)cc1)C(=O)N1C[C@]2(C[C@H]1C#N)C(=O)Nc1ccccc12 [Example 390] | < 100 |
| [2H]C([2H])([2H])N(C(=O)c1cn(C2CC2)nn1)[C@@H](Cc1ccc(F)cc1)C(=O)N1C[C@]2(C[C@H]1C#N)C(=O)Nc1ccccc12 [Example 391] | < 100 |
